Measurements from patent publication US20150342954A1, “2-BENZYL, 3-(PYRIMIDIN-2-YL) SUBSTITUTED PYRAZOLES USEFUL AS SGC STIMULATORS” (IRONWOOD PHARMACEUTICALS, INC., priority 2011, published 2015).
pEC50: −log10 of the molar value. Read-outs that look alike come from different tables or passages of the source.

Columns and labels:
[1] = molecular target: T1, Human soluble guanylate cyclase enzyme (hsGC) (Homo sapiens, UniProt Q02108+Q02153); experiment: Purified human sGC enzyme synergy assay in the presence of 1 μM sodium nitroprusside (SNP); type: biochemical; settings: compound at 30 μM, presence of 1 μM SNP
T1 construct: purchased Enzo Inc. ALX-201-177
T1 sequence (Q02153 1-619): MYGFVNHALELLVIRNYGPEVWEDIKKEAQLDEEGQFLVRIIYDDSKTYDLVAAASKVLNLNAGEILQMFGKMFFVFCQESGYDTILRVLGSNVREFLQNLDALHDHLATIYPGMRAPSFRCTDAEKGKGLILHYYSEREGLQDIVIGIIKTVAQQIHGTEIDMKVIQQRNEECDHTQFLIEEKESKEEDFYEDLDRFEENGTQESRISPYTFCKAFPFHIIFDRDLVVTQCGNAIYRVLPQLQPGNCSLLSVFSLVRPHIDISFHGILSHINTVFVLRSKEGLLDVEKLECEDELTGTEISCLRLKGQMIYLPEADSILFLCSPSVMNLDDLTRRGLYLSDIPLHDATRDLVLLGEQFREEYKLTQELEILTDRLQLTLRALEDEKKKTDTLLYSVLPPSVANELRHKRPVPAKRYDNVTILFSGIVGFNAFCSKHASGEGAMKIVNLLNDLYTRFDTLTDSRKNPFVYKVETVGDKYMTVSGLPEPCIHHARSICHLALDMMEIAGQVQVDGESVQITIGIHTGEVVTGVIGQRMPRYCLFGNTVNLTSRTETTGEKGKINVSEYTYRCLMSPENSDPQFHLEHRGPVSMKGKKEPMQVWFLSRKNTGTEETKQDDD
T1 sequence (Q02108 1-690): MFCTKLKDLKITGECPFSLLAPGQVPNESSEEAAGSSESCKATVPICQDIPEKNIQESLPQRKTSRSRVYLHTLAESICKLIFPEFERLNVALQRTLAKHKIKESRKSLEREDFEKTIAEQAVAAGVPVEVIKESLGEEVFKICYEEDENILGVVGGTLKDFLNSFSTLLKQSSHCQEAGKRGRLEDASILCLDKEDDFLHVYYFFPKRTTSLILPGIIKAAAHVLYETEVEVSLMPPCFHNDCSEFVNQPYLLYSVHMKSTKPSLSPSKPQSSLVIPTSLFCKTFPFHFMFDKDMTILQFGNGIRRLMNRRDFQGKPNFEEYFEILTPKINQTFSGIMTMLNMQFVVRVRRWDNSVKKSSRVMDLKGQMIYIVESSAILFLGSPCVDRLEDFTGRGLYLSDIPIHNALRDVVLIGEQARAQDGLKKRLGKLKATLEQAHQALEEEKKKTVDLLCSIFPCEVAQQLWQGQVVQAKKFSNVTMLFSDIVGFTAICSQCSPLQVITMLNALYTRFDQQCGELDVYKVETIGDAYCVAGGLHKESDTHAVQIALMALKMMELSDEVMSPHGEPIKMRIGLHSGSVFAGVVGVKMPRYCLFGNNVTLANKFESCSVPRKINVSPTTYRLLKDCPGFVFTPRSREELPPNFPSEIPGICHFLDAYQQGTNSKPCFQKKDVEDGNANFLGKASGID
How it was run: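 Purified hsGC (5 ng) incubated 30 min at 37 °C with compound (10 or 30 μM final) in Tris pH 8.0, 300 μM GTP, 1 mM IBMX, 2 mM MgCl2, with or without 1 μM SNP; stopped with cold methanol. cGMP quantified against standard curve; specific activity expressed as fold-change over DMSO control.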

[2] = molecular target: T2, soluble guanylate cyclase (sGC) (Homo sapiens, UniProt Q02108+Q02153); experiment: sGC-HEK-cGMP assay (run with SNP incubation); type: cell-based; settings: for Emax: 10 μM SNP, 100% = 30 μM BAY 41-2272 with 10 μM SNP, read-out: HEK assay Emax-unconstrained (Percent); for HEK MEC-10: concentration that would elicit 10% of the Emax in the presence of 10 μM SNP; for pEC50: in the presence of 10 μM SNP
T2 construct: endogenously expressing soluble guanylate cyclase (sGC); endogenous in cells; host or cells: HEK293
T2 sequence (Q02153 1-619): T1 sequence (Q02153 1-619)
T2 sequence (Q02108 1-690): T1 sequence (Q02108 1-690)
How it was run: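 HEK293 cells with endogenous sGC were pre-treated 15 min at 37 °C with 0.5 mM IBMX, then exposed to test compound plus sodium nitroprusside for 10 min at 37 °C. Cells were lysed in 0.1 M HCl (4 °C, 30 min), and cGMP was quantified by LC/MS against a standard curve. EC50 values came from concentration-response curves.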

[3] = molecular target: T1, Human soluble guanylate cyclase enzyme (hsGC); experiment: Purified human sGC enzyme activity assay (without SNP); type: biochemical; settings: compound at 30 μM, absence of SNP, fold over DMSO control
How it was run: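 Purified human sGC (5 ng) in 0.1 M Tris pH 8.0, 2 mM DTT, 2 mM MgCl2, 300 μM GTP, 1 mM IBMX, with compound at 10 or 30 μM final, 30 min at 37° C.; methanol-stopped. cGMP quantified against a standard curve; specific activity expressed as fold-change over DMSO control.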

[4] = Table 3C, top of concentration-response curve not fitted to 100%
[5] = Table 3F, read-out: HEK assay EC50
[6] = top of concentration-response curve not fitted to 100%, Table 3F, read-out: HEK assay EC50-unconstrained
[7] = Table 3B, top of concentration-response curve not fitted to 100%
[8] = Table 3E, read-out: HEK assay EC50
[9] = top of concentration-response curve not fitted to 100%, Table 3E, read-out: HEK assay EC50-unconstrained
[10] = Table 3A, top of concentration-response curve not fitted to 100%
[11] = Table 3D, read-out: HEK assay EC50
[12] = top of concentration-response curve not fitted to 100%, Table 3D, read-out: HEK assay EC50-unconstrained

Enzyme Activity (increase at 30 μM with SNP) ([1]; Table 5C)	Emax [2, 4] [%]	HEK MEC-10 ([2]; Table 3F)	pEC50 [2, 5]	pEC50 [2, 6]	Enzyme Activity (increase at 30 μM without SNP) ([3]; Table 5C)	Enzyme Activity (increase at 30 μM with SNP) ([1]; Table 5B)	Emax [2, 7] [%]	HEK MEC-10 ([2]; Table 3E)	pEC50 [2, 8]	pEC50 [2, 9]	Enzyme Activity (increase at 30 μM without SNP) ([3]; Table 5B)	SMILES	also measured
D (10 or <20 fold increase)	80 to 100	C (0.1 to <1 μM)	> 4.70	5.30 to 6.00	D (10 or <20 fold increase)							Fc1ccccc1Cn1nc(-c2ncc3[nH]cnc3n2)cc1-c1ccon1 [Compound 110]	
D (10 or <20 fold increase)	40 to 60	B (0.01 to <0.1 μM)	> 4.70	6.30 to 8.00	D (10 or <20 fold increase)							CC1(C)C(=O)Nc2nc(-c3cc(-c4ccon4)n(Cc4ccccc4F)n3)nc(N)c21 [Compound 99, 4-amino-2-(1-(2-fluorobenzyl)-5-(isoxazol-3-yl)-1H-pyrazol-3-yl)-5,5-dimethyl-5H-pyrrolo[2,3-d]pyrimidin-6(7H)-one]	
F (>30 fold increase)	60 to 80	C (0.1 to <1 μM)	> 4.70	6.00 to 6.30	D (10 or <20 fold increase)							CC1(C)C(=O)Nc2nc(-c3cc(-c4ccon4)n(Cc4ccccc4F)n3)ncc21 [Compound 100]	
						D (10 or <20 fold increase)	60 to 80	B (0.01 to <0.1 μM)	4.00 to 4.22	5.30 to 6.00	C (5 to <10 fold increase)	Oc1ccnc(-c2cc(-c3ccon3)n(Cc3cccc(F)c3F)n2)n1 [Compound 84]	
												NNc1nc(-c2cc(-c3ccon3)n(Cc3ccccc3F)n2)ncc1F [Compound 56]	Enzyme Activity (increase at 30 μM with SNP) ([1]; Table 5A): D (10 or <20 fold increase); Emax [2, 10]: 60 to 80%; HEK MEC-10 ([2]; Table 3D): B (0.01 to <0.1 μM); pEC50 [2, 11]: > 4.70; pEC50 [2, 12]: 6.00 to 6.30; Enzyme Activity (increase at 30 μM without SNP) ([3]; Table 5A): C (5 to <10 fold increase)
						C (5 to <10 fold increase)	40 to 60	C (0.1 to <1 μM)	4.22 to 4.40	5.30 to 6.00	B (2 to <5 fold increase)	N#Cc1cc(-c2ncc(F)c(=O)[nH]2)nn1Cc1ccccc1F [Compound 74]	
												O=c1[nH]c(-c2cc(-c3ccon3)n(Cc3cccnc3F)n2)ncc1F [Compound 67]	Enzyme Activity (increase at 30 μM with SNP) ([1]; Table 5A): B (2 to <5 fold increase); Emax [2, 10]: 20 to 40%; HEK MEC-10 ([2]; Table 3D): B (0.01 to <0.1 μM); pEC50 [2, 11]: 4.22 to 4.40; pEC50 [2, 12]: 6.30 to 8.00; Enzyme Activity (increase at 30 μM without SNP) ([3]; Table 5A): A (no increase to <2 fold increase)
E (20 to 30 fold increase)	80 to 100	B (0.01 to <0.1 μM)	> 4.70	6.00 to 6.30	C (5 to <10 fold increase)							NC1=NNC2NC(c3cc(-c4ccon4)n(Cc4ccccc4F)n3)=NC=C12 (stereo not shown) [Compound 118]	
						D (10 or <20 fold increase)	40 to 60	C (0.1 to <1 μM)	4.22 to 4.40	5.30 to 6.00	C (5 to <10 fold increase)	O=c1ccnc(-c2cc(-c3ccon3)n(Cc3cccc(Cl)c3F)n2)[nH]1 [Compound 81]	
						E (20 to 30 fold increase)	80 to 100	B (0.01 to <0.1 μM)	4.00 to 4.22	6.30 to 8.00	D (10 or <20 fold increase)	Oc1nc(-c2cc(-c3ccon3)n(Cc3cccc(F)c3F)n2)ncc1Cl [Compound 76]	
						D (10 or <20 fold increase)	80 to 100	A (0.001 to <0.01 μM)	4.00 to 4.22	6.00 to 6.30	B (2 to <5 fold increase)	Nc1nc(-c2cc(-c3ccon3)n(Cc3ccccc3F)n2)ncc1NC(=O)C1(N)CC1 [Compound 69]	
						E (20 to 30 fold increase)	80 to 100	B (0.01 to <0.1 μM)	4.00 to 4.22	6.00 to 6.30	C (5 to <10 fold increase)	Nc1ccnc(-c2cc(-c3ccon3)n(Cc3cccc(Cl)c3F)n2)n1 [Compound 78]	
												CSc1cnc(-c2cc(-c3ccon3)n(Cc3ccccc3F)n2)nc1O [Compound 29, 2-(1-(2-fluorobenzyl)-5-(isoxazol-3-yl)-1H-pyrazol-3-yl)-5-(methylthio)pyrimidin-4-ol]	Enzyme Activity (increase at 30 μM with SNP) ([1]; Table 5A): D (10 or <20 fold increase); Emax [2, 10]: 40 to 60%; HEK MEC-10 ([2]; Table 3D): E (10 to 50 μM); pEC50 [2, 11]: > 4.70; pEC50 [2, 12]: 5.00 to 5.30; Enzyme Activity (increase at 30 μM without SNP) ([3]; Table 5A): B (2 to <5 fold increase)
						E (20 to 30 fold increase)	40 to 60			6.30 to 8.00	C (5 to <10 fold increase)	O=c1[nH]c(-c2cc(-c3ccon3)n(Cc3ccccc3F)n2)nc(F)c1C(F)(F)F [Compound 85, 6-fluoro-2-(1-(2-fluorobenzyl)-5-(isoxazol-3-yl)-1H-pyrazol-3-yl)-5-(trifluoromethyl)pyrimidin-4(3H)-one]	
						C (5 to <10 fold increase)	40 to 60	C (0.1 to <1 μM)	4.22 to 4.40	5.30 to 6.00	B (2 to <5 fold increase)	O=c1[nH]c(-c2cc(-c3ncon3)n(Cc3cc(F)ccc3F)n2)ncc1F [Compound 75]	
E (20 to 30 fold increase)	60 to 80	A (0.001 to <0.01 μM)	> 4.70	6.30 to 8.00	D (10 or <20 fold increase)							CC(=O)Nc1n[nH]c2nc(-c3cc(-c4ccon4)n(Cc4ccccc4F)n3)ncc12 [Compound 114]	
